# Measurements: patent US10770169B2, “Method of providing a treatment to a subject based on a dynamic pathway map” (THE REGENTS OF THE UNIVERSITY OF CALIFORNIA, priority 2010, dated 2020)
# Like-named read-outs stand apart in the source and are kept apart here.
# Experiments:
# [1] = test system: panel of 55 breast cancer cell lines; assay: Cell growth inhibition assay (Cell Titer Glo, 72 h, 9 doses; GI50, TGI, LC50); assay type: cell-based, human; settings: Homo sapiens, read-out: GI50 (converted)
# [2] = test system: luminal, basal, claudin-low and ERBB2AMP breast cancer cell lines; assay: Associations of clinically relevant subtypes and response (non-parametric ANOVA or t-test on GI50 ranks); assay type: cell-based, human; settings: Table 6; most sensitive subtype, FDR p<0.20
# Procedure, shortened: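 GI50 values were compared between cell-line subtype groups by non-parametric ANOVA or t-test on ranks. P-values from three test sets were combined and FDR-corrected. Significant three-group effects were followed by post-hoc comparison of each group against all others, and FDR p<0.20 counted as significant.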
smiles,measurement,setting,value
CC/C(=C(\c1ccccc1)c1ccc(OCCN(C)C)cc1)c1ccccc1 [Tamoxifen],GI50,"[1]; 600MPE cell line, censored GI50 values",47.9 µM
same,GI50,"[1]; AU565, AU565 cell line, censored GI50 values",28.8 µM
same,GI50,"[1]; AU565, cell line AU565",28.8 µM
same,GI50,"[1]; BT-474, BT474 cell line, censored GI50 values",2.4 µM
same,GI50,"[1]; BT-474, cell line BT474",2.4 µM
same,GI50,"[1]; BT-483, BT483 cell line, censored GI50 values",24 µM
same,GI50,"[1]; BT-483, cell line BT483",24 µM
same,GI50,"[1]; BT-549, cell line BT549",166 µM
same,GI50,"[1]; CAMA-1, CAMA1 cell line, censored GI50 values",34.7 µM
same,GI50,"[1]; CAMA-1, cell line CAMA1",34.7 µM
same,GI50,"[1]; HCC38, HCC38 cell line, censored GI50 values",52.5 µM
same,GI50,"[1]; HCC38, cell line HCC38",52.5 µM
same,GI50,"[1]; HCC70, cell line HCC70",166 µM
same,GI50,"[1]; HCC202, HCC202 cell line, censored GI50 values",29.5 µM
same,GI50,"[1]; HCC202, cell line HCC202",29.5 µM
same,GI50,"[1]; HCC1143, HCC1143 cell line, censored GI50 values",16.2 µM
same,GI50,"[1]; HCC1143, cell line HCC1143",16.2 µM
same,GI50,"[1]; HCC1395, HCC1395 cell line, censored GI50 values",14.5 µM
same,GI50,"[1]; HCC1395, cell line HCC1395",14.5 µM
same,GI50,"[1]; HCC1419, HCC1419 cell line, censored GI50 values",33.1 µM
same,GI50,"[1]; HCC1419, cell line HCC1419",33.1 µM
same,GI50,"[1]; HCC1428, HCC1428 cell line, censored GI50 values",3.24 µM
same,GI50,"[1]; HCC1428, cell line HCC1428",3.24 µM
same,GI50,"[1]; HCC1500, HCC1500 cell line, censored GI50 values",105 µM
same,GI50,"[1]; HCC1500, cell line HCC1500",105 µM
same,GI50,"[1]; HCC1806, HCC1806 cell line, censored GI50 values",13.2 µM
same,GI50,"[1]; HCC1806, cell line HCC1806",13.2 µM
same,GI50,"[1]; HCC1937, cell line HCC1937",166 µM
same,GI50,"[1]; HCC1954, HCC1954 cell line, censored GI50 values",97.7 µM
same,GI50,"[1]; HCC1954, cell line HCC1954",97.7 µM
same,GI50,"[1]; HCC2185 cell line, censored GI50 values",14.1 µM
same,GI50,"[1]; LY2 cell line, censored GI50 values",56.2 µM
same,GI50,"[1]; MCF7, MCF7 cell line, censored GI50 values",102 µM
same,GI50,"[1]; MCF7, cell line MCF7",102 µM
same,GI50,"[1]; MDA-MB-134-VI, MDAMB134VI cell line, censored GI50 values",83.2 µM
same,GI50,"[1]; MDA-MB-175-VII, MDAMB175VII cell line, censored GI50 values",14.5 µM
same,GI50,"[1]; MDA-MB-415, MDAMB415 cell line, censored GI50 values",33.9 µM
same,GI50,"[1]; MDA-MB-436, MDAMB436 cell line, censored GI50 values",30.9 µM
same,GI50,"[1]; MDA-MB-453, MDAMB453 cell line, censored GI50 values",36.3 µM
same,GI50,"[1]; SK-BR-3, SKBR3 cell line, censored GI50 values",105 µM
same,GI50,"[1]; SUM52PE, SUM52PE cell line, censored GI50 values",91.2 µM
same,GI50,"[1]; SUM149PT, SUM149PT cell line, censored GI50 values",102 µM
same,GI50,"[1]; SUM185PE, SUM185PE cell line, censored GI50 values",8.91 µM
same,GI50,"[1]; SUM1315MO2, SUM1315MO2 cell line, censored GI50 values",100 µM
same,GI50,"[1]; UACC-893, UACC893 cell line, censored GI50 values",3.09 µM
same,GI50,"[1]; ZR-75B, ZR75B cell line, censored GI50 values",16.2 µM
same,GI50,[1]; cell line 600MPE,47.9 µM
same,GI50,[1]; cell line HCC2185,14.1 µM
same,GI50,[1]; cell line HCC3153,166 µM
same,GI50,[1]; cell line LY2,56.2 µM
same,Subtype specificity,[2],Luminal
